Key:
[1] = molecular target: T1, 5-HT1A serotonin receptor (Rattus norvegicus, UniProt P19327); settings: qualitative statement on reference standard; cited from earlier work
T1 construct: from tissue
T1 sequence (P19327 1-422): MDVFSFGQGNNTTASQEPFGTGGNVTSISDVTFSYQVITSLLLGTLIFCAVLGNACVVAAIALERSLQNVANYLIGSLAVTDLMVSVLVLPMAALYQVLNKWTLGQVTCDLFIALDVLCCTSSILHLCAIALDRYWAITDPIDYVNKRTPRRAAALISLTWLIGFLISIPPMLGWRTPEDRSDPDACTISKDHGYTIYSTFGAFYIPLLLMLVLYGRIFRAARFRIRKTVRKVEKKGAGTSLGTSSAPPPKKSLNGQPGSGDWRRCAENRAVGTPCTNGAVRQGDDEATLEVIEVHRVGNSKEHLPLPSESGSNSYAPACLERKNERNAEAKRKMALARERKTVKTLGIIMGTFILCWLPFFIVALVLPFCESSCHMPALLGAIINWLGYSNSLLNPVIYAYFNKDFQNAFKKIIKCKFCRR

[2] = molecular target: T1, 5-HT1A serotonin receptor; test: 5-HT1A receptor binding, displacement of [^3 H]8-OHDPAT (procedure of Hall et al., J. Neurochem. 44, 1685 (1985))
Excerpt: High affinity for the serotonin 5-HT1A receptor was established by testing the claimed compound's ability to displace [^3 H]8-OHDPAT (dipropylaminotetralin) from the 5-HT1A serotonin receptor following the procedure of Hall et al., J. Neurochem.

| IC50 [2] [nM] | Compound | affinity for the 5-HT1A serotonin receptor subtype of the standard (in words) [1] |
| --- | --- | --- |
|  | O=C1CC2(CCCC2)CC(=O)N1CCCCN1CCN(c2ncccn2)CC1 [Buspirone] | potent affinity |
| 18.6 | O=C(C(CCN1CCN(c2cccccc2=O)CC1)c1ccccc1)N1CCCCCC1 (centres unmarked) [Example 1, 2-[4-(4-Azepan-1-yl-4-oxo-3-phenyl-butyl)-piperazin-1-yl]-cyclohepta-2,4,6-trienone] |  |
| 351 | C[C@H](CN1CCN(c2cccccc2=O)CC1)N(C(=O)C1CCCCC1)c1ccccn1 [Example 4, Cyclohexanecarboxylic acid (R)-{1-methyl-2-[4-(7-oxo-cyclohepta-1,3,5-trienyl)-piperazin-1-yl]-ethyl}-(pyrilin-2-yl)-amide] |  |
| 861 | C[C@H](CN1CCN(c2cccccc2=O)CC1)N(C(=O)C1CC=CCC1)c1ccccn1 (stereo partly drawn) [Example 3, Cyclohex-3-enecarboxylic acid (R)-{1-methyl-2-[4-(7-oxo-cyclohepta-1,3,5-trienyl)-piperazin-1-yl]-ethyl}-(pyridin-2-yl)-amide] |  |
| 19.8 | C[C@H](CN1CCN(c2cccccc2=O)CC1)Nc1ccccn1 [Example 2, (R)-2-{4-[2-(Pyridin-2-ylamino)-propyyl}-piperazin-1-yl}-cyclohepta-2,4,6trienone] |  |

From patent US5541179A, “Tropon-2-one piperazine carboxamides as serotonergic agents” (American Home Products Corporation, priority 1995, dated 1996)
